We go through 4 compounds from patent US20120088841A1, “COMPOSITION AND A METHOD OF TREATING CNS DISORDERS AND HYPERPIGMENTATION” (priority 2010, published 2012).

Converted amounts (≈) assume the structure as drawn. “And” between values parts separate entries of the source, which are not always exact repeats. Equal entries are not always repeated. Where two headings read alike, the source gives them in different places. Marks after values point to notes of the source that are not given here.

Series [1] deals with Mushroom Tyrosinase enzyme. Description: Tyrosinase inhibition. The class given is biochemical. Conditions: 40 units Mushroom Tyrosinase, 0.7 mM L-Tyrosine disodium, 37° C. From the text: Pigmentation is a multistep process critically dependent on the functional integrity of tyrosinase, the rate-limiting enzyme in melanin synthesis. Biosynthesis of melanin is initiated by the catalytic oxidation of tyrosine to 3, 4 dihydroxy phenylalanine (dopa) by tyrosinase. Subsequent reactions happen spontaneously eventually resulting in the synthesis of melanin. Under in vitro conditions, tyrosinase enzyme acts on L-Tyrosine forming a pink colored complex. This pink color intensity formed during the reaction is quenched in the presence of the inhibitor. The assay is performed in a 96 well clear microtitre plate. The compound hydroxychavicol, crude betel leaf extract and the reference standard in suitable vehicle (PBS or 0.2% DMSO) is pre incubated with 40 units of Mushroom Tyrosinase enzyme at 37° C. for 10 minutes. The reaction is initiated by adding 0.7 mM L-Tyrosine disodium and the absorbance is read after 10 minutes of incubation at 37° C. in FluostarOptima microplate reader at 492 nm. The dose dependent inhibitory activity of samples is calculated and the results are expressed as IC50 values using Graphpad prism software.

For series [2], the system named is B16F1 mouse melanoma cells. Nature of the series: Inhibition of α-MSH induced melanogenesis in B16F1 mouse melanoma cell line. In kind it is cell-based. Conditions: B16-F1, 216 h, 0.6 nM MSH, 9 days treatment, read-out: Inhibition of MSH induced Melanin IC50. The protocol: Melanin synthesis can be directly studied in live animal cells. B16F1 mouse melanoma cells were seeded in a 6 well microtiter plate at a seeding density of 5000 cells per well in 2 ml DMEM medium per well. After 24 hours of incubation in a CO2 incubator, melanin production is induced by 0.6 nM […] by replacing the medium with medium containing […]. The cells were then treated with the compound hydroxychavicol, crude betel leaf extract and the reference standard over a period of 9 days with renewal of […] containing medium and sample at regular intervals of 3 days. Control wells were maintained without sample treatment and only with the vehicle used for sample preparation. After the incubation period, the medium was removed and the cells were scraped and washed in PBS. Thereafter, melanin was extracted by 1N NaOH in boiling water bath for 5 minutes. The absorbance of the melanin extract was read at 405 nm in a microplate reader. The inhibitory effect of the samples is calculated based on the decrease of melanin formation. The dose dependent inhibitory activity of samples is calculated and the results are expressed as IC50 values using Graphpad prism software.

For series [3], the system named is TNF alpha. Nature of the series: TNF alpha inhibition invitro (comparative data). In kind it is cell-based. Conditions: read-out: TNF alpha inhibition (IC50 μg/ml). From the text:
(§1) The results are as tabulated below in table 2.

Series [4] is described as follows: ORAC value (comparative data). To be noted: invitro; higher is better.
Source text: as §1

Series [5] concerns ICV STZ treated rats. Description: Single trial passive avoidance test after ICV injection of STZ. To be noted: for initial latency: day 19, ICV STZ rats; for mean retention latency: day 20, ICV STZ rats (STZ Control 173±28 s). The class given is in vivo. The procedure: (§2) The injection was repeated on day 3.
Memory retention deficit was evaluated by a step through passive avoidance apparatus according to the method previously described by Mojard et al. (2007) on days 19th and 20th after 1st injection of STZ. On the acquisition trial, each rat was placed in the lighted chamber and after 60 s of habituation period, the guillotine door separating the lighted and dark chamber was opened, and the initial latency (IL) to enter the dark chamber was recorded. Immediately after the rat entered the dark chamber, the guillotine door was closed and an electric foot shock (75 V, 0.2 mA, 50 Hz) was delivered to the floor grids for 3 s. Five seconds later, the rat was removed from the dark chamber and returned to its home cage. Twenty-four hours later, the retention latency (RL) time was measured in the same way as in the acquisition trial, but foot shock was not delivered, and the latency time was recorded to a maximum of 600 s.

Series [6] has as its system Reduced glutathione (GSH). Nature of the series: Estimation of reduced glutathione in brain of ICV STZ rats. To be noted: for GSH: brain homogenate, ICV STZ rats (STZ Control 223.21 ± 6.08). The class given is in vivo. The protocol:
as §2
Reduced glutathione (GSH) in the brain was estimated according to the method described by Ellman (1959). 1 ml supernatant was precipitated with 1 ml of 4% sulfosalicylic acid and cold digested at 4° C. for 1 h. The samples were centrifuged at 1200×g for 15 min at 4° C. To 1 ml of this supernatant, 2.7 ml of phosphate buffer (0.1 M, pH 8) and 0.2 ml of 5,5′-dithiobis-(2-nitrobenzoic acid) (DTNB) were added. The yellow colour developed was read immediately at 412 nm using spectrophotometer. The results were calculated using the molar extinction coefficient of chromophore (1.36×104 M−1 cm−1) and expressed as a percentage of the control.

Series [7] relates to CD3+ cell population. Nature of the series: Flow cytometric evaluation of cell-surface marker CD3+ in peripheral blood lymphocytes. The class given is in vivo, rats. The protocol:
as §2
(§3) CD3 monoclonal antibody that reacts with the CD3 differentiation antigen expressed on MHC class I T cytotoxic cells as well as MHC class II T helper cells, was used for the determination of activated T cell populations in the blood and CD19 monoclonal antibody that reacts with CD19 antigen expressed on B cells was used for the estimation of B cell population. Tubes were incubated in dark for 30 min at room temperature. Subsequently, 2 ml of 1×FACS lyses solution was added at room temperature with gentle mixing and these samples were then spinned at (300-400×g). The supernatant was aspirated and samples were given 3 washings of phosphate buffer saline (pH 7.4). The resulting stained cell pellet was resuspended in 500 μl of phosphate buffer saline and was run on a flow cytometer. Acquisition and the analysis were done directly on flow cytometer using Cell Quest Pro software (BD Biosciences) (Bani et al., 2005, 2006).
(In flow cytometry, cells or beads pass a laser one at a time.)

The subject of series [8] is CD19+ cell population. Nature of the series: Flow cytometric evaluation of cell-surface marker CD19+ in peripheral blood lymphocytes. The class given is in vivo, rats. The protocol: as §2, §3
The subject of series [9] is IFN-γ. Nature of the series: Estimation of intracellular cytokine IFN-γ in CD3+ T cells. The class given is in vivo, rats. The procedure: as §2
Magnetic-bead Assisted Cell Sorting (MACS) separated the CD3+ T cells that were then permeabilised with 500 μl of FACS permeabilising solution (Becton Dickinson) for 10 min at room temperature. With this technique, specific cells that have antibody-coated micro beads are separated under a strong magnetic field magnetically from the whole cell suspension according to their cell-surface antigen. After centrifugation, cells were incubated with anti-rat IFN-γ-PE for 30 min in the dark at room temperature. After washing in PBS, cells were fixed in […] of 1% formaldehyde PBS. A total of 10,000-gated events were acquired in on a FACS BD LSR II flow cytometer (Bani et al., 2005, 2006) and analysis was done on flow cytometer using Cell Quest Pro software (BD Biosciences).

Series [10] has as its system Balb/C mice. To be noted: mouse, in vivo, po, 1000 mg/kg.
Experimental: Three female Balb/C mice, fasted 3-4 h prior to the test, were used for each step and observed individually after dosing at least once during the first 30 min, and periodically during the first 24 h, with special attention given during the first 4 h, and daily thereafter, for a total of 14 days.
For series [11], the system named is Malondialdehyde (MDA). Description: Measurement of lipid peroxidation (MDA) in brain of ICV STZ rats. To be noted: for MDA (LP): brain homogenate, ICV STZ rats (STZ Control 415.21 ± 10.07).

Turning to `O=C1O[C@H]([C@@H](O)CO)C(O)=C1O` [Ascorbic acid, reference compound], the “Tyrosinase inhibition IC50” value in [1] was “IC50—9.33 μg/ml”. Besides, the IC50 in series [2] came to 25 µg/mL (≈ 142 µM).

Turning to `CC=Cc1ccc(O)c(OC)c1` [Isoeugenol], in [3] (invitro), the IC50 is 515 µg/mL (≈ 3140 µM). The “ORAC value (μmol trolox equivalents/g)” value in series [4] is listed as 15248 μmol trolox equivalents/g.

As to `C=CCc1ccc(O)c(O)c1` [HC, Hydroxychavicol], the initial latency in series [5] (HC 0.5 mg/kg p.o.) was determined as 12.21 ± 1.42 s; in [5] (HC 1 mg/kg p.o.), 17.33 ± 2.6 s; in series [5] (HC 2 mg/kg p.o.), 15.92 ± 1.09 s; in [5] (HC 4 mg/kg p.o.) it was 18.21 ± 2.96 s. For the same compound, the figures for the mean retention latency in series [5] (HC 1 mg/kg p.o.) and in [5] (HC 2 mg/kg p.o.) were 291.87 ± 25.66 s and 301.09 ± 13.67 s, respectively. The “GSH percentage activity against STZ Control group (stimulation)” value in series [6] (HC 0.5 mg/kg p.o.) is given as “(61.03↑)* %”; in series [6] (HC 1.0 mg/kg p.o.), “(62.52↑)* %”; in series [6] (HC 2.0 mg/kg p.o.), “(66.52↑)* %”; in series [6] (HC 4.0 mg/kg p.o.) it was “(67.04↑)* %”. For the same compound, the GSH in [6] (HC 0.5 mg/kg p.o.) was 359.44 ± 5.47 µg/g; in [6] (HC 1.0 mg/kg p.o.) it was 362.78 ± 6.24 µg/g; in [6] (HC 2.0 mg/kg p.o.) it was 371.69 ± 6.17 µg/g and 371.69 ± 6.117 µg/g; in series [6] (HC 4.0 mg/kg p.o.), 372.87 ± 3.18 µg/g. The “mean percentage of CD3+ cells in the lymphocyte population” value in series [7] (HC 0.5 mg/kg p.o. (STZ Control 62.21±4.65%)) was found to be 51.19±1.78%; in series [7] (HC 2 mg/kg p.o. (STZ Control 62.21±4.65%)), 45.28±3.43%; in [7] (HC 4 mg/kg p.o. (STZ Control 62.21±4.65%)), 44.49±4.55%. For the same compound, the “mean percentage of CD19+ cells in the lymphocyte population” value in [8] (HC 0.5 mg/kg p.o. (STZ Control 27.08±2.77%)) is reported as 21.43±1.39%; in [8] (HC 1 mg/kg p.o. (STZ Control 27.08±2.77%)), 17.08±2.09%; in series [8] (HC 2 mg/kg p.o. (STZ Control 27.08±2.77%)), 16.97±1.88%; in series [8] (HC 4 mg/kg p.o. (STZ Control 27.08±2.77%)), 16.01±1.07%. Besides, the “expression of IFN-γ in CD3+ T cells” value in [9] (HC 2 mg/kg p.o. (STZ Control 18.18±0.97%)) is given as 12.08±0.21%; in series [9] (HC 4 mg/kg p.o. (STZ Control 18.18±0.97%)), 11.91±0.87%. Also, the IC50 in [3] amounted to 88.7 µg/mL (≈ 590 µM); in series [2], 1.3 µg/mL (≈ 8.66 µM). The “untoward symptom or mortality, general behaviour” value in [10] was “No untoward symptom or any mortality”. The “MDA (LP) percentage activity against STZ Control group (suppression)” value in series [11] (HC 0.5 mg/kg p.o.) was “(27.47↓)* %”; in series [11] (HC 1.0 mg/kg p.o.), “(39.26↓)* %”; in series [11] (HC 2.0 mg/kg p.o.), “(42.87↓)* %”; in series [11] (HC 4.0 mg/kg p.o.), “(46.85↓)* %”. Moreover, the “MDA (LP)” value in series [11] (HC 0.5 mg/kg p.o.) is 301.15 ± 6.34 nmol/mg; in series [11] (HC 1.0 mg/kg p.o.) it was 252.18 ± 4.08 nmol/mg; in series [11] (HC 2.0 mg/kg p.o.), 237.19 ± 3.44 nmol/mg; in series [11] (HC 4.0 mg/kg p.o.) it was 220.68 ± 4.32 nmol/mg.

In the case of `C=CCc1ccc(O)c(OC)c1` [Eugenol], the IC50 in series [3] (invitro) is 114 µg/mL (≈ 694 µM). Moreover, the “ORAC value (μmol trolox equivalents/g)” value in [4] was found to be 13921 μmol trolox equivalents/g.
